# pEC50: −log10 of the molar value.
# Target: T1, MerTK (Homo sapiens, UniProt Q12866)
# T1 construct: Seed HUVECs (10K cells/well) in EBM-2 complete media; host or cells: HUVEC (primary human umbilical vein endothelial cells)
# T1 sequence (Q12866 21-999): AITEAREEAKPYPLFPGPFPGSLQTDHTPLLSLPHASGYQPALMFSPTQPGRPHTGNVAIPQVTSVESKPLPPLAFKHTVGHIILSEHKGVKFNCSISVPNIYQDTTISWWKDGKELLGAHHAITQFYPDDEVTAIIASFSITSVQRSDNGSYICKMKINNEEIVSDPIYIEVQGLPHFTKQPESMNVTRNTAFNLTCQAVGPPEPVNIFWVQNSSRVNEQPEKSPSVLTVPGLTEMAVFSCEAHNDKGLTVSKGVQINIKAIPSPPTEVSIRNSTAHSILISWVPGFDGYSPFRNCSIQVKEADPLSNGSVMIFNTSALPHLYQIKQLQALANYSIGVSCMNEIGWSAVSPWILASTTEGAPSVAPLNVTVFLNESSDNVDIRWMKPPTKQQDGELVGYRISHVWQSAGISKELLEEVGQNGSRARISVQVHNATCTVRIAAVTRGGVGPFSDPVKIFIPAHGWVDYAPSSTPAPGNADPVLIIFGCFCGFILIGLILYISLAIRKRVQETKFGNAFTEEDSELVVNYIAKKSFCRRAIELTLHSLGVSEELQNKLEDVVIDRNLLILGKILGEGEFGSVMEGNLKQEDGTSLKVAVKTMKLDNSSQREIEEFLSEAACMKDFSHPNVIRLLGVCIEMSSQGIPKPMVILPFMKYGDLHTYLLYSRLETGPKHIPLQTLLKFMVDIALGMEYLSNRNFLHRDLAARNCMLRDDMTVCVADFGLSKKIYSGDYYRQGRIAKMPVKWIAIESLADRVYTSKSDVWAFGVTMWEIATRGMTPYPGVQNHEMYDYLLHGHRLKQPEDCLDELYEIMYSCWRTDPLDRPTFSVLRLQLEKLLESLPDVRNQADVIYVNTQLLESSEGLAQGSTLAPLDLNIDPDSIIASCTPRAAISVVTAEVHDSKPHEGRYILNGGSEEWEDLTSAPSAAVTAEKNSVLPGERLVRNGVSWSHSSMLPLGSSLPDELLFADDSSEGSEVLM
# Test: PAKT HTRF-HUVEC assay (pAkt Ser473 HTRF after anti-human MerTK-XL stimulation)
# Format: cell-based
# Settings: HUVEC cells, 1 hour compound, stimulated with anti-human MerTK-XL 1 ug/mL for 10 minutes, read-out: inhibition of MerTK
# Outline: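 HUVECs starved 3-4 h in basal medium, preincubated with compound 1 h at 37° C, then stimulated 10 min with cross-linked anti-human MerTK antibody (final 1 ug/mL). Lysates read for pAkt (Ser473) by HTRF; EC50 from curve fitting.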
row,SMILES,pEC50
1,CCC[C@H](C)Nc1ncc2c3ccc(CN4CCN(C(C)(C)C)CC4)cc3c(=O)n([C@H]3CC[C@H](O)CC3)c2n1 [Compound 215],8.43
2,"CCCCNc1ncc2c3ccc(CN4CCN(C)CC4)cc3c(=O)n([C@H]3CC[C@H](C(=O)O)CC3)c2n1 [Compound 132, trans-4-(3-(Butylamino)-8-((4-methylpiperazin-1-yl)methyl)-6-oxopyrimido[4,5-c]isoquinolin-5(6H)-yl)cyclohexane-1-carboxylic Acid]",5.81
3,"CN1CCN(c2ccc3c(c2)c(=O)n([C@H]2CC[C@H](O)CC2)c2nc(NCCCC(F)(F)F)ncc32)CC1 [Compound 95, trans-5-(4-Hydroxycyclohexyl)-8-(4-methylpiperazin-1-yl)-3-((4,4,4-trifluorobutyl)amino)pyrimido [4,5-c]isoquinolin-6(5H)-one]",5.41
4,"CCC1(CNc2ncc3c4ccc(CN5CCN(C)CC5)cc4c(=O)n([C@H]4CC[C@H](O)CC4)c3n2)CC1 [Compound 22, trans-3-(((1-Ethylcyclopropyl)methyl)amino)-5-(4-hydroxycyclohexyl)-8-((4-methylpiperazin-1-yl)methyl)pyrimido[4,5-c]isoquinolin-6(5H)-one]",6.23
5,"CCC(F)(F)CNc1ncc2c3ccc(CN4CCN(c5ccncc5)CC4)cc3c(=O)n([C@H]3CC[C@H](O)CC3)c2n1 [Compound 221, trans-3-((2,2-Difluorobutyl)amino)-5-(4-hydroxycyclohexyl)-8-((4-(pyridin-4-yl)piperazin-1-yl)methyl)pyrimido[4,5-c]isoquinolin-6(5H)-one]",7.06
6,O=c1c2cc(CN3CCn4ncnc4C3)ccc2c2cnc(NCC3CC3)nc2n1[C@H]1CC[C@H](O)CC1 [Compound 151],7.19
7,CCOC(=O)C1CCN(Cc2ccc3c(c2)c(=O)n(C2CCC(O)CC2)c2nc(NCC4CC4)ncc32)CC1 (stereo not shown) [Compound 161],7.59
8,"O=c1c2cc(CN3CCC(c4ccncc4)CC3)ccc2c2cnc(NCC3CC3)nc2n1[C@H]1CC[C@H](O)CC1 [Compound 217, trans-3-((Cyclopropylmethyl)amino)-5-(4-hydroxycyclohexyl)-8-((4-(pyridin-4-yl)piperidin-1-yl)methyl)pyrimido[4,5-c]isoquinolin-6(5H)-one]",8.39
9,"CC(C)CNc1ncc2c3ccc(CN4CCN(C)CC4)cc3c(=O)n([C@H]3CC[C@H](O)CC3)c2n1 [Compound 56, trans-5-(4-Hydroxycyclohexyl)-3-(isobutylamino)-8-((4-methylpiperazin-1-yl)methyl)pyrimido[4,5-c]isoquinolin-6(5H)-one]",7.29
10,CN1CCN(Cc2ccc3c(c2)c(=O)n([C@H]2CC[C@H](OC(N)=O)CC2)c2nc(N(CC4CC4)C(N)=O)ncc32)CC1 [Compound 183],4.86
11,CCCCNc1ncc2c3ccc(CN4CCNCC4)cc3c(=O)n([C@H]3CC[C@H](O)CC3)c2n1 [Compound 154],7.18
12,O=c1c2cc(N3CCn4ncnc4C3)ccc2c2cnc(NCC3CC3)nc2n1[C@H]1CC[C@H](O)CC1 [Compound 164],6.53
13,"CCCCNc1ncc2c3ccc(CN4CCN(C)CC4)cc3c(=O)n([C@H]3CC[C@H](NC(=N)N)C3)c2n1 [Compound 239, 1-((1S,3 S)-3-(3-(butylamino)-8-((4-methylpiperazin-1-yl)methyl)-6-oxopyrimido[4,5-c]isoquinolin-5(6H)-yl)cyclopentyl)guanidine]",6.02

# Continued by rising pEC50, values first:
row,pEC50,SMILES
1,5.39,CN1CCN(Cc2ccc3c(c2)c(=O)n(C2CCN(C(=O)CC#N)CC2)c2nc(NCC4CC4)ncc32)CC1 [Compound 192]
2,5.41,"CCC1(CNc2ncc3c4ccc(N5CCN(C)CC5)cc4c(=O)n([C@H]4CC[C@H](O)CC4)c3n2)CCC1 [Compound 91, trans-3-(((1-Ethylcyclobutyl)methyl)amino)-5-(4-hydroxycyclohexyl)-8-(4-methylpiperazin-1-yl)pyrimido[4,5-c]isoquinolin-6(5H)-one]"
3,5.93,CCC1(CNc2ncc3c4ccc(CN5CCOCC5)cc4c(=O)n([C@H]4CC[C@H](O)CC4)c3n2)CC1 [Compound 23]
4,6.27,"O=c1c2cc(CC3CCNCC3)ccc2c2cnc(NCC3CC3)nc2n1[C@H]1CC[C@H](O)CC1 [Compound 207, trans-3-((Cyclopropylmethyl)amino)-5-(4-hydroxycyclohexyl)-8-(piperidin-4-ylmethyl)pyrimido[4,5-c]isoquinolin-6(5H)-one]"
5,6.53,"CN1CC2(C1)CN(c1ccc3c(c1)c(=O)n([C@H]1CC[C@H](O)CC1)c1nc(NC4CC(F)(F)C4)ncc31)C2 [Compound 66, trans-3-((3,3-Difluorocyclobutyl)amino)-5-(4-hydroxycyclohexyl)-8-(6-methyl-2,6-diazaspiro[3.3]heptan-2-yl)pyrimido[4,5-c]isoquinolin-6(5H)-one]"
6,6.54,"CCCCNc1ncc2c3ccc(N4CCNCC4)cc3c(=O)n(C3CCC(=O)CC3)c2n1 [Compound 84, 3-(Butylamino)-5-(4-oxocyclohexyl)-8-(piperazin-1-yl)pyrimido[4,5-c]isoquinolin-6(5H)-one]"
7,6.66,O=c1c2cc(CN3CCS(=O)(=O)CC3)ccc2c2cnc(NCC3CC3)nc2n1[C@H]1CC[C@H](O)CC1 [Compound 160]
8,6.74,"CCCCNc1ncc2c3ccc(N4CCN(C(C)C)CC4)cc3c(=O)n(C3CCC(=O)CC3)c2n1 [Compound 70, 3-(Butylamino)-8-(4-isopropylpiperazin-1-yl)-5-(4-oxocyclohexyl)pyrimido[4,5-c]isoquinolin-6(5H)-one]"
9,6.78,"C[C@]1(O)CC[C@H](n2c(=O)c3ccccc3c3cnc(NCCC4CC4)nc32)CC1 [Compound 122, trans-3-((2-Cyclopropylethyl)amino)-5-(4-hydroxy-4-methylcyclohexyl)pyrimido [4,5-c]isoquinolin-6(5H)-one]"
10,6.94,O=c1c2cc(CN3CCN4CCC3CC4)ccc2c2cnc(NCC3CC3)nc2n1[C@H]1CC[C@H](O)CC1 [Compound 179]
11,7.02,"O=c1c2cc(N3CCC(N4CCCC4)CC3)ccc2c2cnc(NCC3CC3)nc2n1[C@H]1CC[C@H](O)CC1 [Compound 99, trans-3-((Cyclopropylmethyl)amino)-5-(4-hydroxycyclohexyl)-8-(4-(pyrrolidin-1-yl)piperidin-1-yl)pyrimido[4,5-c]isoquinolin-6(5H)-one]"
12,7.02,O=c1c2cc(N3CCC(N4CCCC4)CC3)ccc2c2cnc(NCC3CC3)nc2n1[C@H]1CC[C@H](O)CC1 [Compound 158]
13,7.41,"CN1CCN(c2ccc3c(c2)c(=O)n([C@H]2CC[C@H](O)CC2)c2nc(NCC4CCC4)ncc32)CC1 [Compound 92, trans-3-((Cyclobutylmethyl)amino)-5-(4-hydroxycyclohexyl)-8-(4-methylpiperazin-1-yl)pyrimido[4,5-c]isoquinolin-6(5H)-one]"
14,7.69,"CCCCNc1ncc2c3ccc(N4CCN(C(C)C)CC4)cc3c(=O)n([C@H]3CC[C@H](O)CC3)c2n1 [Compound 69, trans-3-(Butylamino)-5-(4-hydroxycyclohexyl)-8-(4-isopropylpiperazin-1-yl)pyrimido[4,5-c]isoquinolin-6(5H)-one]"
15,7.86,"CCCCNc1ncc2c3ccc(N4CCN5CCC4CC5)cc3c(=O)n([C@H]3CC[C@H](O)CC3)c2n1 [Compound 81, trans-8-(1,4-Diazabicyclo[3.2.2]nonan-4-yl)-3-(butylamino)-5-(4-hydroxycyclohexyl)pyrimido[4,5-c]isoquinolin-6(5H)-one]"
